Consider 6 compounds from patent US20240018153A1, “BENZENESULFONAMIDE DERIVATIVES AND USES THEREOF” (2692372 ONTARIO, INC., priority 2020, published 2024).

Experiment [1] deals with T1, BTK (Homo sapiens (Human), UniProt Q06187). The experiment in a line: HTRF KinEASE-TK kinase assay, BTK. The format is biochemical. The settings on record: 3 h preincubation; for remaining activity at 1 µM: 1 μM compound, read-out: % BTK Remaining activity vs DMSO (1 μM, 3 h); for remaining activity at 10 µM: 10 μM compound, read-out: % BTK Remaining activity vs DMSO (10 μM, 3 h). Here is the method:
Kinase activity was monitored using a HTRF® KinEASE-TK kit from Cisbio (62TK0PEC). For BTK, the 1× kinase buffer was supplemented with 10 mM MnCl2, 5 mM MgCl2, 1 uM ATPγS, 1 mM TCEP and 100 fold diluted Supplementary Enzyme Buffer. BTK was purchased from Promega. […] Reaction with substrate was then initiated by adding biotinylated substrate and ATP and the reaction was allowed to proceed for 45 min. […] After 60 min of incubation, the fluorescence emission was measured at 620 nm and 665 nm. The ratio of Em 665 nm to Em 620 nm was proportional to the amount of substrate phosphorylated by the kinase.
(In general: TR-FRET usually uses a lanthanide donor and a delayed reading to cut background.)

The target of another experiment is FGFR4 (Homo sapiens (Human), UniProt P22455). The experiment in a line: HTRF KinEASE-TK kinase assay, FGFR4. In kind it is biochemical. The settings on record: for remaining activity at 1 µM: read-out: % FGFR4 Remaining activity vs DMSO (1 μM, 3 h); for remaining activity at 10 µM: read-out: % FGFR4 Remaining activity vs DMSO (10 μM, 3 h); for IC50: dose response. As for the experimental part: (§1) Kinase activity was monitored using a HTRF® KinEASE-TK kit from Cisbio (62TK0PEC). […] FGFR-4 was purchased from Promega. 0.333 ng/ul FGFR4 (5.12 nM) was preincubated in the absence or presence of inhibitor at room temperature for 3 hours. Reaction with substrate was then initiated by adding biotinylated substrate and ATP. […] The reaction was terminated by adding 31.25 nM SA-XL665 and 100 fold diluted europium labelled antibody (Eu-Ab), diluted in 1× detection buffer that contained EDTA. After 60 min of incubation, the fluorescence emission was measured at 620 nm and 665 nm. The ratio of Em 665 nm to Em 620 nm was proportional to the amount of substrate phosphorylated by the kinase.
Chain of FGFR4 (P22455 22-802): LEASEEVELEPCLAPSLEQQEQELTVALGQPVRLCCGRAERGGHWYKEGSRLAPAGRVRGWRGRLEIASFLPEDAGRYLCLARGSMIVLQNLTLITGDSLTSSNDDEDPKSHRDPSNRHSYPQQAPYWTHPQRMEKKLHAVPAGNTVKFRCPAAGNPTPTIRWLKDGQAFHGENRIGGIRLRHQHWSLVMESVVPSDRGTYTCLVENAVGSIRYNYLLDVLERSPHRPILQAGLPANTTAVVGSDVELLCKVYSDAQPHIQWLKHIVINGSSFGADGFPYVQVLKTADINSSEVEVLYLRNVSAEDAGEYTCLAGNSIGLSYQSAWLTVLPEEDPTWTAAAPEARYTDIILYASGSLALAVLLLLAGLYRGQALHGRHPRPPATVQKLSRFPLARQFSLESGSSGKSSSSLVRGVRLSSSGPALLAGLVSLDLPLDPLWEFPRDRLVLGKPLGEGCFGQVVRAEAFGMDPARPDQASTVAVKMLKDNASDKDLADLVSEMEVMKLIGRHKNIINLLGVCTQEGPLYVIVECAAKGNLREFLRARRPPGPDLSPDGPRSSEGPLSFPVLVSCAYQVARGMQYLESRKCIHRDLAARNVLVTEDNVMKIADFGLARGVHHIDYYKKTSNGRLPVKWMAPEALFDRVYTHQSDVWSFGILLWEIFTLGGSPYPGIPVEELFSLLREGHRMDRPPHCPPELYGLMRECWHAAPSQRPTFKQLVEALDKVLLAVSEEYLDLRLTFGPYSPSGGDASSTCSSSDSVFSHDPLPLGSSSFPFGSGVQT

Experiment [2] concerns the target T1, BTK. The experiment in a line: Ramos RA1 cell lysis and immunoassay, phospho-BTK (Y223) inhibition. The conditions noted are these: RAMOS cells. In kind it is cell-based. More on the design: key: X: BTK bound and autophosphoration of BTK inhibited in cells. Here is the method: Ramos RA 1 cells (ATCC) were cultured in RPMI-1640 media (Wisent) supplemented with 10% heat-inactivated FBS and 1% penicillin/streptomycin. Cells were seeded in 6-well plates at 1.71×10^6 cells/well and incubated at 37° C., 5% CO2 for 16 hours. Cells were treated with compound at the indicated concentrations or DMSO alone and incubated at 37° C., 5% CO2 for 24 hours. Cell suspensions were centrifugated at 1,400-1,600 RPM for 5 minutes at room temperature and supernatants were discarded. Cell pellets were resuspended with 1× RIPA buffer (Millipore) and incubated on ice for 15 minutes. Protein lysates were extracted by centrifugating at 20,000 RPM for 20 minutes at 4° C. Proteins were separated and total BTK protein levels were quantified by Simple Western Immunoassay (ProteinSimple) using the 12-230 kDa Jess Separation Module according to the manufacturer's protocol, using a protein concentration of 0.25 μg/μl and antibodies targeting BTK (clone #D3H5, Cell Signalling) and β-Actin (clone #AC-15, Santa Cruz) diluted to 1:400 and 1:10, respectively, where the latter was used as a loading control. An equal ratio of rabbit and mouse HRP-conjugated secondary antibodies was used for detection. BTK protein levels were quantified relative to S-Actin loading levels and subsequently normalized to the DMSO control. Phosphorylated BTK levels were quantified using the Protein Normalization Assay Module for Jess (ProteinSimple) according to the manufacturer's protocol, using a protein concentration of 1.5 μg/μl and an antibody targeting pBTK (Y223) (Cell Signalling) diluted to 1:50. Phosphorylated BTK levels were quantified relative to the Protein Normalization Reagent and subsequently normalized to the DMSO control.

The target of a further experiment is JAK3 (Homo sapiens (Human), UniProt P52333). The experiment can be described thus: HTRF KinEASE-TK kinase assay, JAK3. In kind it is biochemical. The settings on record: for remaining activity at 1 µM: read-out: % JAK3 Remaining activity vs DMSO (1 μM, 3 h); for remaining activity at 10 µM: read-out: % JAK3 Remaining activity vs DMSO (10 μM, 3 h); for IC50: dose response. Here is the method: as §1, with “JAK-3” for “FGFR-4”, “0.0133” for “0.333”, “JAK3 (0.21” for “FGFR4 (5.12”
Chain of JAK3 (P52333 781-1124): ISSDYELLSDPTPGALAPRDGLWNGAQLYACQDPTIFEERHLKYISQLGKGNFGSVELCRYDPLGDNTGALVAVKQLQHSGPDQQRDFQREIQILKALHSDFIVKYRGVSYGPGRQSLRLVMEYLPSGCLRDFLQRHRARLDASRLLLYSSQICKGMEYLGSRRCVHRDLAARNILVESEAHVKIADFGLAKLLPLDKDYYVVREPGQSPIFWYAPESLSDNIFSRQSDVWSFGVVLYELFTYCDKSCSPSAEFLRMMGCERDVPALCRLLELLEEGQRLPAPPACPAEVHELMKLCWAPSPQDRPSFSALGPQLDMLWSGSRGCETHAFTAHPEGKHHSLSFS

The target in the next experiment is EGFR (Homo sapiens (Human), UniProt P00533). The experiment in a line: HTRF KinEASE-TK kinase assay, EGFR. The format is biochemical. The settings on record: 3 h preincubation; for remaining activity at 1 µM: 1 μM compound, read-out: % EGFR Remaining activity vs DMSO (1 μM, 3 h); for remaining activity at 10 µM: 10 μM compound, read-out: % EGFR Remaining activity vs DMSO (10 μM, 3 h). As for the experimental part: Kinase activity was monitored using a HTRF® KinEASE-TK kit from Cisbio (62TK0PEC). The buffer used was 1× kinase buffer supplemented with 2 mM MnCl2, 5 mM MgCl2, 1 mM TCEP and 100× diluted Supplementary Enzyme Buffer. EGFR was purchased from Promega. […] Reaction with substrate was then initiated by adding biotinylated substrate and ATP. […] After 60 min of incubation, the fluorescence emission was measured at 620 nm and 665 nm. The ratio of Em 665 nm to Em 620 nm was proportional to the amount of substrate phosphorylated by the kinase.
Chain of EGFR (P00533 25-1210): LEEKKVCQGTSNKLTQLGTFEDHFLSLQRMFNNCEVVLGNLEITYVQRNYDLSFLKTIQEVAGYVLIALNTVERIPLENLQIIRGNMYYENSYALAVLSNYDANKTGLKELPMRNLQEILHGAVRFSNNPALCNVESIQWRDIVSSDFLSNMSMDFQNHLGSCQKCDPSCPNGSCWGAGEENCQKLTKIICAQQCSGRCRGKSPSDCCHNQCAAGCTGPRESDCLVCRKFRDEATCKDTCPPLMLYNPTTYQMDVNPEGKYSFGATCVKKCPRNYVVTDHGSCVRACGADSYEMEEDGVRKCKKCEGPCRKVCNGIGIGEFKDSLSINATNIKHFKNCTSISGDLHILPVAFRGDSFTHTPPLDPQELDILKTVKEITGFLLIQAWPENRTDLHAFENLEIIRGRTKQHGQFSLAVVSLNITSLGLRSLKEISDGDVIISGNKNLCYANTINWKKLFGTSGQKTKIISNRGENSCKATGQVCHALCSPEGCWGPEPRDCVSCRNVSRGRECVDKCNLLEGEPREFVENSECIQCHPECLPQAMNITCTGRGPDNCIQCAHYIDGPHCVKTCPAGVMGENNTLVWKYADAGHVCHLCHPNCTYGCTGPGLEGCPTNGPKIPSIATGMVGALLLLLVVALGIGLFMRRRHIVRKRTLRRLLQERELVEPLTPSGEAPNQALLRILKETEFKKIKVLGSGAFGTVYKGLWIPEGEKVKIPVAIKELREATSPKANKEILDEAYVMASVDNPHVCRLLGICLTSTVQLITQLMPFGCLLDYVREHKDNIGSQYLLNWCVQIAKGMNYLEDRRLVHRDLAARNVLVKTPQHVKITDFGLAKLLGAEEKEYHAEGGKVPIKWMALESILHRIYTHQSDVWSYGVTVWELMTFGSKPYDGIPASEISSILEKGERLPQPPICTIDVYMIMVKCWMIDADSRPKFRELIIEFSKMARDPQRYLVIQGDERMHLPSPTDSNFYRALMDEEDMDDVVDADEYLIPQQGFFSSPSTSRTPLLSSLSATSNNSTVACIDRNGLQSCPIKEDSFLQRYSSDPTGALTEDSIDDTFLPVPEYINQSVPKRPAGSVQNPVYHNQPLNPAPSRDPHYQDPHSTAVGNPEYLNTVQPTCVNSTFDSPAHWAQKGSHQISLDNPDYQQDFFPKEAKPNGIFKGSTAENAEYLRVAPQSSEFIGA
For initial screening, enzymes were pre incubated with compounds at 2 different concentrations (1 and 10 uM final) and 0.5% DMSO.

The next experiment has as its target BMX (Homo sapiens (Human), UniProt P51813). The experiment can be described thus: HTRF KinEASE-TK kinase assay, BMX. In kind it is biochemical. The conditions noted are these: for remaining activity at 1 µM: 1 uM compound; for remaining activity at 1 µM / remaining activity at 10 µM: 3 h preincubation; for remaining activity at 10 µM: 10 uM compound. As for the experimental part: as §1, with “BMX” for “FGFR-4”, “BMX (3.03” for “FGFR4 (5.12”, “The reaction” for “Reaction”, “Reaction” for “The reaction”

What is called remaining activity is the share of the control activity or signal that is left under treatment. In general, IC50 refers to the concentration needed to halve the response being measured.

Molecules are shown by their SMILES. Bounds are passed on as bounds.

Chain of BMX (P51813 whole entry): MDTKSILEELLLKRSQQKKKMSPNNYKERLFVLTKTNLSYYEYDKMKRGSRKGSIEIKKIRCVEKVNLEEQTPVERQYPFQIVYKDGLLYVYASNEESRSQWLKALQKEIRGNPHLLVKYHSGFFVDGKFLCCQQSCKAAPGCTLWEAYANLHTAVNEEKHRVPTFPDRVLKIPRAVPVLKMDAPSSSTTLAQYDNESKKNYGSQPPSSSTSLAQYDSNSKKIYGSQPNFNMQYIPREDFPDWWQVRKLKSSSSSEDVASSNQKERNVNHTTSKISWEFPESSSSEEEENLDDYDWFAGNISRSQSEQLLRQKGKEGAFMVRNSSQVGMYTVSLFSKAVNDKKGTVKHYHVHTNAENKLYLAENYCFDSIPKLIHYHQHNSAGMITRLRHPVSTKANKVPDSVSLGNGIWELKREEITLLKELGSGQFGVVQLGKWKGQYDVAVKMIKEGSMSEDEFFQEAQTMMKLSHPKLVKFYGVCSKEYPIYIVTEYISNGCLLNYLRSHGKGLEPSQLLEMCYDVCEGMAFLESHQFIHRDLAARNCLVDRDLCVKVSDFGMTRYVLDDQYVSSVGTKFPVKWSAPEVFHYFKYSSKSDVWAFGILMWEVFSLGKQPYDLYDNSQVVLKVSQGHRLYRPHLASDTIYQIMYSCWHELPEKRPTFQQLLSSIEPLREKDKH
T1 sequence (Q06187 whole entry): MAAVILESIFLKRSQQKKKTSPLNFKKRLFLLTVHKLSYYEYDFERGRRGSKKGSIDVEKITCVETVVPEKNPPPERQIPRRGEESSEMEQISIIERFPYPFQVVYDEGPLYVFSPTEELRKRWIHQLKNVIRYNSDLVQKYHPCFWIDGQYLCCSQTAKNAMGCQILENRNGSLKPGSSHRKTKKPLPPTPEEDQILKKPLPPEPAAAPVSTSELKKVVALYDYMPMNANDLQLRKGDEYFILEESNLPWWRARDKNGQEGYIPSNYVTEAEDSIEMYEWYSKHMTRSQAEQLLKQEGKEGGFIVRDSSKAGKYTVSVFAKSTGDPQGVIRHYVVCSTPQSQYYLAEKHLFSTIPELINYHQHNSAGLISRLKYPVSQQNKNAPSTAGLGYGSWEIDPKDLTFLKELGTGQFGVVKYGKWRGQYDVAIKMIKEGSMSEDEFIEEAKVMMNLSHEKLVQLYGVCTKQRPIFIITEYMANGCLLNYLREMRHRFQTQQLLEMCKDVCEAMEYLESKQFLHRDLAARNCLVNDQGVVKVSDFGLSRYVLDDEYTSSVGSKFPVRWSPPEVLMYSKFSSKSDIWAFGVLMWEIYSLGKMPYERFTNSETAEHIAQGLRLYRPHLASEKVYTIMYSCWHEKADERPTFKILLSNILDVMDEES

For `COCCOc1ccc(Nc2ncc(F)c(Nc3cccc(NS(=O)(=O)c4c(F)c(F)c(F)c(F)c4C(F)F)c3)n2)cc1` [Compound I-51, 2-(difluoromethyl)-3,4,5,6-tetrafluoro-N-(3-((5-fluoro-2-((4-(2-methoxyethoxy)phenyl)amino)pyrimidin-4-yl)amino)phenyl)benzenesulfonamide], the remaining activity at 1 µM at BTK [1] was 50 to 90%; at FGFR4 it was more than 90%; on JAK3, more than 90%; on EGFR it was more than 90%; on BMX, less than 50%. Also, the remaining activity at 10 µM is less than 50% at BTK [1]; less than 50% on FGFR4; 50 to 90% at JAK3; more than 90% on EGFR; less than 50% on BMX. For the same compound, the “pBTK inhibition (RAMOS, 24 h)” value on BTK [2] (compound concentration 10 μM) is “X”.
Take `COCCOc1ccc(Nc2ncc(F)c(Nc3cccc(NS(=O)(=O)c4c(F)c(F)c(F)c(F)c4OC(F)F)c3)n2)cc1` [Compound I-54, 2-(difluoromethoxy)-3,4,5,6-tetrafluoro-N-(3-((5-fluoro-2-((4-(2-methoxyethoxy)phenyl)amino)pyrimidin-4-yl)amino)phenyl)benzenesulfonamide]: the remaining activity at 1 µM is less than 50% on BTK [1]; less than 50% at FGFR4; less than 50% at JAK3; more than 90% on EGFR; less than 50% at BMX. Besides, the remaining activity at 10 µM at BTK [1] is less than 50%; on FGFR4, less than 50%; on JAK3 it was less than 50%; at EGFR it was 50 to 90%; on BMX it was less than 50%. Moreover, the 50% inhibitory concentration (IC50) was less than 1000 nM on FGFR4 and more than 1000 nM at JAK3. For the same compound, the “pBTK inhibition (RAMOS, 24 h)” value at BTK [2] (compound concentration 5 μM) is on record as “X”.
For `COc1c(F)c(F)c(F)c(F)c1S(=O)(=O)n1nc(-c2ccc(Oc3ccccc3)cc2)c2c(N)ncnc21` [Compound I-23, 3-(4-phenoxyphenyl)-1-((2,3,4,5-tetrafluoro-6-methoxyphenyl)sulfonyl)-1H-pyrazolo[3,4-d]pyrimidin-4-amine], the remaining activity at 1 µM at BTK [1] was less than 50%; on FGFR4 it was more than 90%; on JAK3 it was more than 90%; at BMX, less than 50%. In addition, the remaining activity at 10 µM on BTK [1] is less than 50%; on FGFR4, more than 90%; at JAK3 it was 50 to 90%; at BMX it was less than 50%. Also, the “pBTK inhibition (RAMOS, 24 h)” value on BTK [2] (compound concentration 1 μM) was “X”.
On to `Nc1ncnc2c1c(-c1ccc(Oc3ccccc3)cc1)nn2CCNS(=O)(=O)c1c(F)c(F)c(F)c(F)c1C(F)F` [Compound I-22, N-(2-(4-amino-3-(4-phenoxyphenyl)-1H-pyrazolo[3,4-d]pyrimidin-1-yl)ethyl)-2-(difluoromethyl)-3,4,5,6-tetrafluorobenzenesulfonamide], for which the remaining activity at 1 µM is less than 50% at BTK [1]; more than 90% at FGFR4; more than 90% at JAK3; more than 90% on EGFR; less than 50% at BMX. Further, the remaining activity at 10 µM was less than 50% at BTK [1]; less than 50% at FGFR4; 50 to 90% on JAK3; less than 50% on EGFR; less than 50% on BMX. Also, the “pBTK inhibition (RAMOS, 24 h)” value on BTK [2] (compound concentration 1 μM) was “X”.
In the case of `COCCOc1ccc(Nc2ncc(F)c(Nc3cccc(NS(=O)(=O)c4c(F)c(F)c(F)c(F)c4C(F)(F)F)c3)n2)cc1` [Compound I-53, 2,3,4,5-tetrafluoro-N-(3-((5-fluoro-2-((4-(2-methoxyethoxy)phenyl)amino)pyrimidin-4-yl)amino)phenyl)-6-(trifluoromethyl)benzenesulfonamide], the remaining activity at 1 µM is less than 50% at BTK [1]; less than 50% at FGFR4; less than 50% on JAK3; 50 to 90% at EGFR; less than 50% on BMX. Also, the remaining activity at 10 µM on BTK [1], at FGFR4, on JAK3, at EGFR and on BMX was less than 50% each time. The IC50 was less than 1000 nM on BTK [1] (dose response, read-out: BTK Inhibition IC50); less than 1000 nM at FGFR4; less than 1000 nM on JAK3. Besides, the “pBTK inhibition (RAMOS, 24 h)” value at BTK [2] (compound concentration 2.5 μM) is “X”.
As for `Nc1ncnc2c1c(-c1ccc(Oc3ccccc3)cc1)nn2CCNS(=O)(=O)c1c(F)c(F)c(F)c(F)c1OCF` [Compound I-25, N-(2-(4-amino-3-(4-phenoxyphenyl)-1H-pyrazolo[3,4-d]pyrimidin-1-yl)ethyl)-2,3,4,5-tetrafluoro-6-(fluoromethoxy)benzenesulfonamide], the remaining activity at 1 µM at BTK [1] is less than 50%; at FGFR4 it was 50 to 90%; on JAK3, more than 90%; at EGFR, more than 90%; at BMX it was less than 50%. For the same compound, the remaining activity at 10 µM at BTK [1] was less than 50%; at FGFR4 it was less than 50%; on JAK3, 50 to 90%; on EGFR, more than 90%; on BMX it was less than 50%. In addition, on BTK [2] (compound concentration 1 μM), the “pBTK inhibition (RAMOS, 24 h)” value was “X”. This compound came in with an IC50 at BMX (dose response) of less than 1000 nM.
